The record followed here is patent US6355785B1, “Guanosine-rich oligonucleotide integrase inhibitors” (Aronex Pharmaceuticals, Inc., priority 1993, dated 2002).

In general, IC50 refers to the concentration needed to halve the response being measured.

Read-outs that look alike come from different tables or passages of the source.

On the set-up of data set [1]: species or system cynomolgus monkeys. As to conditions: cynomolgus monkey, in vivo. As for the experimental part: Dosing. Twelve experimentally naive cynomolgus monkeys were assigned to four groups of three animals each. Prior to dosing, each animal was lightly sedated with a combination of ketamine (1 0 mg/kg) and diazepam (0.5 mg/kg), and a catheter was introduced into the femoral artery for recording central arterial pressure. Monkeys were given a single intravenous infusion of 5, 20, or 50 mg AR177/kg or saline over ten minutes through a cephalic vein catheter using a Harvard infusion pump. Arterial blood samples were drawn at −10, +10, +20, +40, +60 and +120 minutes relative to the initiation of infusion into EDTA-containing tubes for hematology, complement factors, coagulation assay, serum chemistry, and plasma AR177 determination. At 24 hours post-infusion, blood was drawn via the femoral vein into EDTA-containing tubes for these same parameters. The concentration of AR177 in dosing solutions was confirmed post experiment by absorbance at 280 nm on a spectrophotometer. For the determination of AR177 by HPLC, the plasma fraction was obtained by low speed centrifugation of blood, and stored at −20° C. until used. Electrocardiograms (ECGs), central pressure, and heart rate were recorded continuously for 120 minutes following the initiation of doing. Table E-1 summarizes the study design. The animals were observed twice daily pharmacotoxic signs and general health beginning two days before dosing and for seven days following dosing. The monkeys were not necropsied at the end of the study.
Hematology and coagulation parameters. The following are determined: red blood cell count and morphology, total and differential white blood cells, hemoglobin, hematocrit, prothrombin time, fibrinogen, mean cell hemoglobin, mean corpuscular volume, mean corpuscular hemoglobin concentration, platelet count, and activated partial thromboplastin time. Hematology parameters were determined at Sierra Nevada Laboratories (Reno, Nev.).

In data set [2] the test system is HIV-1 clinical isolates. The data set can be described thus: microbe, parasite or virus in culture. It counts as cell-based.
For data set [3], the target named is recombinant HIV-1 integrase (wild-type) (Human immunodeficiency virus type 1 group M subtype B, UniProt P12497). The data set can be described thus: HIV-1 integrase 3′-processing and strand transfer assays. It counts as biochemical. The arrangement: Purified recombinant HIV-1 integrase enzyme (wild-type) was a generous gift from Dr. R. Craigie; purchased gift of Dr. R. Craigie, Laboratory of Molecular Biology, NIDDK (not bought).

Setting [4] is: 3′-processing, read-out: Anti-Integrase Assay IC50 3′-proc.
Where [5] appears, read: strand transfer, read-out: Anti-Integrase Assay IC50 strand tran.

“5′-gtggtgggtgggtgggt-3′ (GTGGTGGGTGGGTGGGT; phosphorothioate termini, further chemistry not given here) [T30177, pPT version of parent compound I100-15, 17 mer]”: in data set [1], the “anticoagulant potency, less potent than thrombin-binding aptamer oligonucleotide” value was 40 fold and the hematology values result is listed as “no changes in hematology values attributable to AR177”.
Regarding “5′-gtggtgggtgggtgggt-3′ [T30177] (GTGGTGGGTGGGTGGGT; phosphorothioate termini, further chemistry not given here) [pPT version of parent compound I100-15, 17 mer]”, the IC50 in data set [2] (PBLs, clinical isolate 942716, read-out: IC50 viral production) is 860 ± 6 nM; in data set [2] (PBLs, clinical isolate 942751, read-out: IC50 viral production) it was 380 ± 3 nM; in data set [2] (PBLs, clinical isolate BAKI (SI), read-out: IC50 viral production) it was 230 ± 5 nM; in data set [2] (PBLs, clinical isolate BLCH (NSI), read-out: IC50 viral production) it was 3080 ± 6 nM; in data set [2] (PBLs, clinical isolate JOGA (NSI), read-out: IC50 viral production), 330 ± 4 nM; in data set [2] (PBLs, clinical isolate N. Amer. #1, read-out: IC50 viral production) it was 250 ± 3 nM. The IC50 came to 2920 ± 5 nM in data set [2] (PBLs, clinical isolate N. Amer. #2, read-out: IC50 viral production); 3900 ± 20 nM in data set [2] (PBLs, clinical isolate ROJO (SI), read-out: IC50 viral production); 580 ± 3 nM in data set [2] (PBLs, clinical isolate S. E. Asia, read-out: IC50 viral production); 1300 ± 20 nM in data set [2] (PBLs, clinical isolate VIHU (NSI), read-out: IC50 viral production); 300 ± 10 nM in data set [2] (PBLs, clinical isolate WEJO (SI), read-out: IC50 viral production); 710 ± 2 nM in data set [2] (PBLs, clinical isolate WOME (SI), read-out: IC50 viral production). Moreover, the IC50 in data set [3] (setting [4]) amounted to 92 nM; in data set [3] (HIV-1 integrase, read-out: IC50 3′-processing), 55 nM; in data set [3] (read-out: Enzyme IC50 3-′process), 49 nM; in data set [3] (read-out: Enzyme IC50 Stran Trans) it was 79 nM; in data set [3] (setting [5]), 46 nM. For the same compound, the “no effect plasma AR177 concentration versus aPTT” value in data set [1] is 60-100 ug AR177/mL. Besides, the “plasma AR177 concentration at doubling of aPTT” value in data set [1] was 100-250 ug AR177/mL. Further, the “plasma AR177 concentration at tripling of aPTT” value in data set [1] is 250-300 fig AR177/mL. The “increase in potency (3′-processing) with magnesium instead of manganese” value in data set [3] was “four to five-fold”.
Regarding `Cc1cn([C@H]2C[C@H](N=[N+]=[N-])[C@@H](CO)O2)c(=O)[nH]c1=O` [AZT, 3′-azido-3′-deoxythymidine], the IC50 is 10 to 1650 nM in data set [2] (Human immunodeficiency virus 1, read-out: IC50 values over the clinical isolates tested in PBLs, range over isolates); 2 ± 3 nM in data set [2] (Human immunodeficiency virus 1, read-out: IC50 viral production, PBLs, clinical isolate 942716); 28 ± 2.5 nM in data set [2] (Human immunodeficiency virus 1, read-out: IC50 viral production, PBLs, clinical isolate 942751); 20 ± 6 nM in data set [2] (Human immunodeficiency virus 1, read-out: IC50 viral production, PBLs, clinical isolate BAKI (SI)); 22 ± 0.8 nM in data set [2] (Human immunodeficiency virus 1, read-out: IC50 viral production, PBLs, clinical isolate BLCH (NSI)); > 1000 nM in data set [2] (Human immunodeficiency virus 1, read-out: IC50 viral production, PBLs, clinical isolate JOGA (NSI)). Also, the IC50 amounted to 10 ± 4 nM in data set [2] (Human immunodeficiency virus 1, read-out: IC50 viral production, PBLs, clinical isolate N. Amer. #1); 1650 ± 7 nM in data set [2] (Human immunodeficiency virus 1, read-out: IC50 viral production, PBLs, clinical isolate N. Amer. #2); 52 ± 0.4 nM in data set [2] (Human immunodeficiency virus 1, read-out: IC50 viral production, PBLs, clinical isolate ROJO (SI)); 60 ± 5 nM in data set [2] (Human immunodeficiency virus 1, read-out: IC50 viral production, PBLs, clinical isolate S. E. Asia); 36 ± 0.7 nM in data set [2] (Human immunodeficiency virus 1, read-out: IC50 viral production, PBLs, clinical isolate VIHU (NSI)); 17 ± 0.1 nM in data set [2] (Human immunodeficiency virus 1, read-out: IC50 viral production, PBLs, clinical isolate WEJO (SI)). Moreover, the IC50 was 25 ± 0.3 nM in data set [2] (Human immunodeficiency virus 1, read-out: IC50 viral production, PBLs, clinical isolate WOME (SI)); > 1000 nM in data set [3] (setting [4]); > 1000 nM in data set [3] (setting [5]).
